For assay [1], the species on record is Cavia porcellus. The experiment in a line: Compound was evaluated for the increase in duration or cardiac APD (action potential duration) at 90% repolarization, using isolated guinea pig ventricular myocytes at concentration of 1000 nM. The arrangement: unit not given here. The assay is classed as functional, Heart, Ventricular myocyte.
For assay [2], the species on record is Cavia porcellus. In words: Compound was evaluated for the increase in duration or cardiac APD (action potential duration) at 90% repolarization, using isolated guinea pig ventricular myocytes at concentration of 10000 nM. In kind it is functional, Heart, Ventricular myocyte. The arrangement: unit not given here.
The species entered for assay [3] is Cavia porcellus. In words: Compound was evaluated for the increase in duration or cardiac APD (action potential duration) at 90% repolarization, using isolated guinea pig ventricular myocytes at concentration of 100 nM. The assay is classed as functional, Heart, Ventricular myocyte. On the set-up: unit not given here.
The species named for assay [4] is Cavia porcellus. In words: Compound was evaluated for the increase in duration or cardiac APD (action potential duration) at 90% repolarization, using isolated guinea pig ventricular myocytes at concentration of 50 nM. The assay is classed as functional, Heart, Ventricular myocyte.
The species named for assay [5] is Cavia porcellus. In words: Compound was evaluated for the increase in duration or cardiac APD (action potential duration) at 90% repolarization, using isolated guinea pig ventricular myocytes at concentration of 50000 nM. In kind it is functional, Heart, Ventricular myocyte.
The species named for assay [6] is Cavia porcellus. In words: Compound was evaluated for the increase in duration or cardiac APD (action potential duration) at 90% repolarization, using isolated guinea pig ventricular myocytes at concentration of 10000 nM; no detectable change. The note with it: Heart, Ventricular myocyte. In kind it is functional.
For assay [7], the species on record is Cavia porcellus. The experiment in a line: Compound was evaluated for the increase in duration or cardiac APD (action potential duration) at 90% repolarization, using isolated guinea pig ventricular myocytes at concentration of 33000 nM. The assay is classed as functional, Heart, Ventricular myocyte.
The species named for assay [8] is Cavia porcellus. In words: Compound was evaluated for the increase in duration or cardiac APD (action potential duration) at 90% repolarization, using isolated guinea pig ventricular myocytes at concentration of 10 nM. In kind it is functional, Heart, Ventricular myocyte.
Assay [9] is filed under the species Cavia porcellus. In words: Compound was evaluated for the increase in duration or cardiac APD (action potential duration) at 90% repolarization, using isolated guinea pig ventricular myocytes at concentration of 1 nM. The assay is classed as functional, Heart, Ventricular myocyte.
For assay [10], the species on record is Cavia porcellus. In words: Compound was evaluated for the increase in duration or cardiac APD (action potential duration) at 90% repolarization, using isolated guinea pig ventricular myocytes at concentration of 50000 nM; no detectable change. The note with it: Heart, Ventricular myocyte. The assay is classed as functional.
Assay [11] is filed under the species Cavia porcellus. In words: Compound was evaluated for the increase in duration or cardiac APD (action potential duration) at 90% repolarization, using isolated guinea pig ventricular myocytes at concentration of 33000 nM; No detectable change. The assay is classed as functional. The note with it: Heart, Ventricular myocyte.
Assay [12] is filed under the species Cavia porcellus. The experiment in a line: Compound was evaluated for the increase in duration or cardiac APD (action potential duration) at 90% repolarization, using isolated guinea pig ventricular myocytes at concentration of 10000 nM; No detectable change. The note with it: Heart, Ventricular myocyte. In kind it is functional.
The species named for assay [13] is Cavia porcellus. The experiment in a line: Compound was evaluated for the increase in duration or cardiac APD (action potential duration) at 90% repolarization, using isolated guinea pig ventricular myocytes at concentration of 250 nM. The assay is classed as functional, Heart, Ventricular myocyte.
The species entered for assay [14] is Cavia porcellus. The experiment in a line: Compound was evaluated for the increase in duration or cardiac APD (action potential duration) at 90% repolarization, using isolated guinea pig ventricular myocytes at concentration of 33000 nM; no detectable change. The note with it: Heart, Ventricular myocyte. The assay is classed as functional.
For assay [15], the species on record is Cavia porcellus. In words: Compound was evaluated for the increase in duration or cardiac APD (action potential duration) at 90% repolarization, using isolated guinea pig ventricular myocytes at concentration of 75000 nM. The assay is classed as functional, Heart, Ventricular myocyte.

In the case of `COc1ccc(CCNCC(O)COc2ccc(NS(C)(=O)=O)cc2)cc1OC` (stereo unspecified), the “Delta APD90” value in assay [1] was 15; in assay [2], 80. As for `CN(CCCc1ccccc1)CC(O)COc1ccc(NS(C)(=O)=O)cc1` (stereo unspecified), in [3], the “Delta APD90” value is recorded as 70. Regarding `CN(C/C=C/c1ccccc1)CC(O)COc1ccc(NS(C)(=O)=O)cc1` (stereo unspecified), the “Delta APD90” value in [4] is reported as 50; in assay [3], 100. `COc1ccc(CCN(C)CC(O)COc2ccc(NS(C)(=O)=O)cc2)cc1OC` (stereo unspecified): the entries for the “Delta APD90” value in assay [3] and in assay [1] were 40 and 100, respectively. For the compound `COc1ccc(CCN(CC(O)COc2ccc(NS(C)(=O)=O)cc2)C(C)C)cc1OC` (stereo unspecified), the results for the “Delta APD90” value in assay [3] and in assay [1] were 65 and 100, respectively. In the case of `O=C(O)c1ccc(OCC(O)CN2CCC(c3ccccc3)CC2)cc1` (stereo unspecified), the “Delta APD90” value in assay [1] amounted to 36. On to `CC(C)NCC(O)c1ccc(NS(C)(=O)=O)cc1` (stereo unspecified) [SOTALOL], for which the “Delta APD90” value is 30 in [5] and 75 in [2]. Consider `CC(C)NCC(O)COc1ccc(NS(C)(=O)=O)cc1` (stereo unspecified), for which the “Delta APD90” value in assay [6] is “No detectable change”; in [7], 33. With `CS(=O)(=O)Nc1ccc(OCC(O)CN2CCN(c3ccccc3)CC2)cc1` (stereo unspecified), the “Delta APD90” value in [1] is recorded as 78; in assay [2], 100. Regarding `CS(=O)(=O)Nc1ccc(OCC(O)CN2CCC(c3ccc(C(F)(F)F)cc3)CC2)cc1` (stereo unspecified), the results for the “Delta APD90” value in [8], in assay [9] and in assay [4] were 100, 40 and 100, respectively. With `CNCC(O)COc1ccc(NS(C)(=O)=O)cc1` (stereo unspecified), the “Delta APD90” value in assay [10] and in assay [6] was “No detectable change” in each case.

For the compound `CS(=O)(=O)Nc1ccc(OCC(O)CN2CCc3ccccc3C2)cc1` (stereo unspecified), the “Delta APD90” value in assay [3] was 60. On to `CC(C)NCC(O)COc1ccc(N(C)S(C)(=O)=O)cc1` (stereo unspecified), for which the “Delta APD90” value in [11] and in [12] was “No detectable change” in each case. Consider `CCN(CC)CC(O)COc1ccc(NS(C)(=O)=O)cc1` (stereo unspecified), for which the figures for the “Delta APD90” value in assay [1] and in [2] were 25 and 85, respectively.

In the case of `CS(=O)(=O)Nc1ccc(OCC(O)CNCCc2ccc(Cl)cc2)cc1` (stereo unspecified), the “Delta APD90” value in assay [2] is recorded as 90. `CN(CCOc1ccc(NS(C)(=O)=O)cc1)CCc1ccc(NS(C)(=O)=O)cc1` [DOFETILIDE]: the results for the “Delta APD90” value in assay [4], in [13] and in assay [3] were 23, 100 and 63, respectively.

On to `CS(=O)(=O)Nc1ccc(OCC(O)CN2CCC(c3ccccc3)CC2)cc1` (stereo unspecified), for which the “Delta APD90” value was 48 in assay [3] and 100 in assay [1].

`CN(c1ccc(OCC(O)CNCCc2ccccc2)cc1)S(C)(=O)=O` (stereo unspecified): the “Delta APD90” value in assay [14] and in assay [6] was “No detectable change” in each case. With `CS(=O)(=O)Nc1cccc(OCC(O)CN2CCC(c3ccccc3)CC2)c1` (stereo unspecified), the “Delta APD90” value in assay [1] was 48.

Take `CS(=O)(=O)Nc1ccc(OCC(O)CN2CCC(c3ccc(Cl)cc3)CC2)cc1` (stereo unspecified): the “Delta APD90” value in assay [8] was found to be 100; in assay [9], 50. As for `CC(C)(C)NCC(O)COc1ccc(NS(C)(=O)=O)cc1` (stereo unspecified), the “Delta APD90” value in assay [5] was determined as 75; in assay [15], 75; in assay [7] it was 40. Take `CN(CCc1ccccc1)CC(O)COc1ccc(NS(C)(=O)=O)cc1` (stereo unspecified): the “Delta APD90” value in [3] came out at 48; in assay [1] it was 88. For the compound `CS(=O)(=O)Nc1ccc(OCC(O)CNCCc2ccccc2)cc1` (stereo unspecified), in assay [2], the “Delta APD90” value was found to be 80. In the case of `CN(CCc1ccc(Cl)c(Cl)c1)CC(O)COc1ccc(NS(C)(=O)=O)cc1` (stereo unspecified), the “Delta APD90” value is on record as 42 in [8], 20 in assay [9] and 85 in assay [3].

(Values after ChEMBL document CHEMBL1125688, “The synthesis and potassium channel blocking activity of some (4-methanesulfonamidophenoxy)propanolamines as potential class III antiarrhythmic agents” (1991).)
